Source: ChEMBL document CHEMBL2434851, “Squaric acid/4-aminoquinoline conjugates: novel potent antiplasmodial agents” (Eur J Med Chem, 2013)

Columns and labels:
HEK-293T = assay: Cytotoxicity against HEK293T cells assessed as cell viability after 48 hrs by MTT assay; format: cell-based; conditions: Homo sapiens
NIH3T3 = assay: Cytotoxicity against mouse NIH/3T3 cells assessed as cell viability after 48 hrs by MTT assay; format: cell-based; conditions: NIH3T3, 48 h
[1] = Inhibition of Plasmodium falciparum falcipain-2 using Z-Leu-Arg-AMC as substrate preincubated for 10 mins followed by substrate addition by spectrofluorometric analysis
Papain = biological target: T1, Papain (Carica papaya, UniProt P00784); assay: Inhibition of papaya papain using Z-Leu-Leu-Arg-AMC as substrate after 30 mins by fluorescence microplate reader analysis
T1 sequence (P00784 whole entry): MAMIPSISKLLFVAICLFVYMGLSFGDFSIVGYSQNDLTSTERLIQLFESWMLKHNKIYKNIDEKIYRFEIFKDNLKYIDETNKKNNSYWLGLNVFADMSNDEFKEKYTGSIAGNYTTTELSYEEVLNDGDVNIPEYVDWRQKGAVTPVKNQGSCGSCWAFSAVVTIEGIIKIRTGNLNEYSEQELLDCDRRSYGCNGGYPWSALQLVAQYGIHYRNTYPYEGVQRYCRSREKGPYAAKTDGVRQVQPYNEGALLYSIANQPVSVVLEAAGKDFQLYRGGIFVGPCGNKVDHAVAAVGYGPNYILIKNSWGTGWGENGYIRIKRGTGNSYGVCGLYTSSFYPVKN

in vitro = conditions: human
Description: Selectivity index, ratio of IC50 for HEK293T cells to IC50 for ring stage of Plasmodium falciparum W2 infected in human RBC

Plasmodium falciparum = assay: microbe, parasite or virus in culture; conditions: W2, 48 h
Description: Antiplasmodial activity against ring stage of chloroquine-resistant Plasmodium falciparum W2 infected in human RBC after 48 hrs by flow cytometric analysis

SMILES	IC50 (HEK-293T) [µM]	IC50 (NIH3T3) [µM]	IC50 [1] [µM]	IC50 (Papain) [µM]	selectivity ratio (in vitro)	IC50 (Plasmodium falciparum) [µM]
COc1c(NCCNc2ccnc3cc(Cl)ccc23)c(=O)c1=O	> 50	> 50	> 10	> 10	> 32	1.56
COc1c(NCCCNc2ccnc3cc(Cl)ccc23)c(=O)c1=O	> 50	> 50		> 10	> 27	1.84
CCCCOc1c(NCCNc2ccnc3cc(Cl)ccc23)c(=O)c1=O	> 50	> 50	> 10	> 10	> 24	2.04
CCCCOc1c(NCCCNc2ccnc3cc(Cl)ccc23)c(=O)c1=O			> 10	> 10		> 10
CCCCOc1c(N2CCN(c3ccnc4cc(Cl)ccc34)CC2)c(=O)c1=O	> 50	> 50		> 10	> 6	7.82
CCCCOc1c(N2CCC(Nc3ccnc4cc(Cl)ccc34)CC2)c(=O)c1=O	37.9	45.7			8	4.71
O=c1c(NCCNc2ccnc3cc(Cl)ccc23)c(NCCNc2ccnc3cc(Cl)ccc23)c1=O	5	4.5		> 10	25	0.2
O=c1c(NCCCNc2ccnc3cc(Cl)ccc23)c(NCCCNc2ccnc3cc(Cl)ccc23)c1=O	> 50	> 50		> 10	> 505	0.099
O=c1c(NCCCCNc2ccnc3cc(Cl)ccc23)c(NCCCCNc2ccnc3cc(Cl)ccc23)c1=O	> 50	> 50		> 10	> 526	0.095
O=c1c(N2CCC(Nc3ccnc4cc(Cl)ccc34)CC2)c(N2CCC(Nc3ccnc4cc(Cl)ccc34)CC2)c1=O	> 50	> 50			> 476	0.105
O=C(NCCNc1ccnc2cc(Cl)ccc12)[C@H](Cc1ccccc1)Nc1c(N[C@@H](Cc2ccccc2)C(=O)NCCNc2ccnc3cc(Cl)ccc23)c(=O)c1=O	> 50	> 50	> 50	> 10	> 70	0.71
CCCCOc1c(NCCCC(C)Nc2cc(OC)cc3cccnc23)c(=O)c1=O (stereo not drawn)	> 50	> 50		> 10	> 2	18.6
COc1cc(NC(C)CCCNc2c(NCCCC(C)Nc3cc(OC)cc4cccnc34)c(=O)c2=O)c2ncccc2c1 (stereo not drawn)	> 50	> 50			> 22	2.21
CCN(CC)CCCC(C)Nc1ccnc2cc(Cl)ccc12 (stereo not drawn) [CHLOROQUINE]	> 50	> 50				
CC(C)C[C@H](NC(=O)[C@H]1O[C@@H]1C(=O)O)C(=O)NCCCCN=C(N)N [E-64]			0.06	0.007		
CCCCOc1c(OCCCC)c(=O)c1=O [SQUARIC ACID DIBUTYL ESTER]						8.84
